Molecular target: T1, Ba/F3 cell EGFR Exon20 ins NPH (Homo sapiens, UniProt P00533, INS773NPH)
T1 construct: expressed in transfected cells; host or cells: Ba/F3
Experiment: Ba/F3 cell proliferation suppression, EGFR Exon20 ins NPH
Assay type: cell-based
Settings: GI50 class; Ba/F3 cell line with NPH inserted at Exon20 of EGFR; 72 hours
Procedure, shortened: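 Cells were seeded 24 h before dosing and then treated for 72 hours with compound at final concentrations of 0.3 nM to 50 um. Live cells were measured by CellTiter-Glo luminescence, and GI50 values were derived from growth ratio relative to control across three repeats.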

Row | Ba/F3 (NPH) Activity | SMILES
1 | A (GI50 < 50 nM) | C=CC(=O)Nc1cc(Nc2cc(N3OCC[C@@H]3c3c(F)ccc(F)c3Cl)ncn2)c(OC)cc1N1CCC(N2CCN(C3CC3)[C@@H](C)C2)CC1 [compound 934, N-(5-((6-((R)-3-(2-chloro-3,6-difluorophenyl)isoxazolidine-2-yl)pyrimidine-4-yl)amino)-2-(4-((S)-4-cyclopropyl-3-methylpiperazine-1-yl)piperidine-1-yl)-4-methoxyphenyl) acrylamide]
2 | B (50 nM ≤ GI50 < 500 nM) | C=CC(=O)Nc1cc(Nc2cc(N3OCC[C@H]3Cc3ccccc3)ncn2)c(OC)cc1N(C)CCN(C)C [compound 973, N-(5-((6-((R)-3-benzylisoxazolidine-2-yl)pyrimidine-4-yl)amino)-2-((2-(dimethylamino)ethyl) (methyl)amino)-4-methoxyphenyl) acrylamide]
3 | A (GI50 < 50 nM) | C=CC(=O)Nc1cc(Nc2cc(N3OCC[C@@H]3Cc3ccccc3)ncn2)c(OC)cc1N1CCN(CC2CC2)CC1 [compound 959, N-(5-((6-((S)-3-benzylisoxazolidine-2-yl)pyrimidine-4-yl)amino)-2-(4-(cyclopropylmethyl)piperazine-1-yl)-4-methoxyphenyl) acrylamide]
4 | C (500 nM ≤ GI50 < 5000 nM) | C=CC(=O)Nc1cc(Nc2cc(N3OCC[C@H]3Cc3ccccn3)ncn2)c(OC)cc1N1CCC(N2CCN(C3CC3)CC2)CC1 [compound 1058, N-(2-(4-(4-cyclopropylpiperazine-1-yl)piperidine-1-yl)-4-methoxy-5-((6-((R)-3-(pyridine-2-ylmethyl)isoxazolidine-2-yl)pyrimidine-4-yl)amino)phenyl)acrylamide]
5 | A (GI50 < 50 nM) | C=CC(=O)Nc1cc(Nc2cc(N3OCC[C@@H]3c3cc(F)ccc3F)ncn2)c(OC)cc1N1CCC(N2CCC3(CC2)CC3)CC1 [compound 828, N-(2-(4-(6-azaspiro[2.5]octan-6-yl)piperidine-1-yl)-5-((6-((R)-3-(2,5-difluorophenyl)isoxazolidine-2-yl)pyrimidine-4-yl)amino)-4-methoxyphenyl) acrylamide]
6 | A (GI50 < 50 nM) | C=CC(=O)Nc1cc(Nc2cc(N3OCC[C@@H]3c3c(F)ccc(F)c3Cl)ncn2)c(OC)cc1N1CCC(N2CCN(C3CC3)[C@H](C)C2)CC1 [compound 935, N-(5-((6-((R)-3-(2-chloro-3,6-difluorophenyl)isoxazolidine-2-yl)pyrimidine-4-yl)amino)-2-(4-((R)-4-cyclopropyl-3-methylpiperazine-1-yl)piperidine-1-yl)-4-methoxyphenyl) acrylamide]
7 | A (GI50 < 50 nM) | C=CC(=O)Nc1cc(Nc2cc(N3OCC[C@@H]3c3cc(F)ccc3F)ncn2)c(OC)cc1N1CCC(N2CC3CC2CN3C)CC1 (stereo partly drawn) [compound 877, N-(5-((6-((R)-3-(2,5-difluorophenyl)isoxazolidine-2-yl)pyrimidine-4-yl)amino)-4-methoxy-2-(4-(5-methyl-2,5-diazabicyclo [2.2.1]heptane-2-yl)piperidine-1-yl)phenyl)acrylamide]

The remaining lines, values behind:

Row | SMILES | Ba/F3 (NPH) Activity
8 | C=CC(=O)Nc1cc(Nc2cc(N3OCC[C@@H]3c3cccc4ccccc34)ncn2)c(OC)cc1N1CCC(N2CCN(C3CC3)[C@H](C)C2)CC1 [Example 155, N-(2-(4-((R)-4-cyclopropyl-3-methylpiperazine-1-yl)piperidine-1-yl)-4-methoxy-5-((6-((R)-3-(naphthalene-1-yl)isoxazolidine-2-yl)pyrimidine-4-yl)amino)phenyl)acrylamide] | A (GI50 < 50 nM)
9 | C#Cc1cccc([C@H]2CCON2c2cc(Nc3cc(NC(=O)C=C)c(N4CCC(N5CCN(CC)CC5)CC4)cc3OC)ncn2)c1 [compound 652, N-(2-(4-(4-ethylpiperazine-1-yl)piperidine-1-yl)-5-((6-((R)-3-(3-ethynylphenyl)isoxazolidine-2-yl)pyrimidine-4-yl)amino)-4-methoxyphenyl) acrylamide] | B (50 nM ≤ GI50 < 500 nM)
10 | C=CC(=O)Nc1cc(Nc2cc(N3OCC[C@@H]3c3ccc(Cl)c(Cl)c3F)ncn2)c(OC)cc1N1CC[C@H](N2CCOCC2)C1 [Example 295, N-(5-((6-((R)-3-(3,4-dichloro-2-fluorophenyl)isoxazolidine-2-yl)pyrimidine-4-yl)amino)-4-methoxy-2-((S)-3-morpholinopyrolidine-1-yl)phenyl)acrylamide] | C (500 nM ≤ GI50 < 5000 nM)
11 | C=CC(=O)Nc1cc(Nc2cc(N3OCC[C@@H]3c3ccc(F)c(Cl)c3F)ncn2)c(OC)cc1N(C)CCN(C)C [compound 603, N-(5-((6-((R)-3-(3-chloro-2,4-difluorophenyl)isoxazolidine-2-yl)pyrimidine-4-yl)amino)-2-((2-(dimethylamino)ethyl)(methyl)amino)-4-methoxyphenyl) acrylamide] | A (GI50 < 50 nM)
12 | C=CC(=O)Nc1cc(Nc2cc(N3OCC[C@@H]3c3ccc(F)c(Cl)c3)ncn2)c(OC)cc1N1CCC(N2CCN(C3CC3)[C@@H](C)C2)CC1 [Example 177, N-(5-((6-((R)-3-(3-chloro-4-fluorophenyl)isoxazolidine-2-yl)pyrimidine-4-yl)amino)-2-(4-((S)-4-cyclopropyl-3-methylpiperazine-1-yl)piperidine-1-yl)-4-methoxyphenyl) acrylamide] | A (GI50 < 50 nM)
13 | C=CC(=O)Nc1cc(Nc2cc(N3OCC[C@@H]3c3cccc(Cl)c3C)ncn2)c(OC)cc1N1CCC(N2CCO[C@H](C)C2)CC1 [compound 530, N-(5-((6-((R)-3-(3-chloro-2-methylphenyl)isoxazolidine-2-yl)pyrimidine-4-yl)amino)-4-methoxy-2-(4-((R)-2-methylmorpholino)piperidine-1-yl)phenyl) acrylamide] | A (GI50 < 50 nM)
14 | C=CC(=O)Nc1cc(Nc2cc(N3OCC[C@@H]3c3ccc(C)nc3)ncn2)c(OC)cc1N1CCC(N2CCN(C3CC3)CC2)CC1 [Example 67, N-(2-(4-(4-cyclopropylpiperazine-1-yl)piperidine-1-yl)-4-methoxy-5-((6-((R)-3-(6-methylpyridine-3-yl)isoxazolidine-2-yl)pyrimidine-4-yl)amino)phenyl) acrylamide] | B (50 nM ≤ GI50 < 500 nM)
15 | C=CC(=O)Nc1cc(Nc2cc(N3OCC[C@@H]3c3cc(F)ccc3F)ncn2)c(OC)cc1N1CCC(N2CCN(C(C)=O)CC2)CC1 [compound 815, N-(2-(4-(4-acetylpiperazine-1-yl)piperidine-1-yl)-5-((6-((R)-3-(2,5-difluorophenyl)isoxazolidine-2-yl)pyrimidine-4-yl)amino)-4-methoxyphenyl) acrylamide] | A (GI50 < 50 nM)
16 | C=CC(=O)Nc1cc(Nc2cc(N3OCC[C@@H]3c3ccc(Cl)cc3F)ncn2)c(OC)cc1N1CCC(N(C(=O)C=C)C2CCN(C(C)C)CC2)CC1 [compound 402, N-(1-(2-acrylamido-4-((6-((R)-3-(4-chloro-2-fluorophenyl)isoxazolidine-2-yl)pyrimidine-4-yl)amino)-5-methoxyphenyl)piperidine-4-yl)-N-(1-isopropylpiperidine-4-yl)acrylamide] | A (GI50 < 50 nM)
17 | C=CC(=O)Nc1cc(Nc2cc(N3OCC[C@@H]3c3cccc(C#N)c3)ncn2)c(OC)cc1N1CC[C@@H](N(C)C)C1 [compound 395, N-(5-((6-((R)-3-(3-cyanophenyl)isoxazolidine-2-yl)pyrimidine-4-yl)amino)-2-((R)-3-(dimethylamino)pyrolidine-1-yl)-4-methoxyphenyl) acrylamide] | B (50 nM ≤ GI50 < 500 nM)
18 | C=CC(=O)Nc1cc(Nc2cc(N3OCC[C@@H]3c3cc(F)cc(Cl)c3)ncn2)c(OC)cc1N1CCC(N2C[C@@H]3CCN(C)[C@@H]3C2)CC1 [compound 540, N-(5-((6-((R)-3-(3-chloro-5-fluorophenyl)isoxazolidine-2-yl)pyrimidine-4-yl)amino)-4-methoxy-2-(4-((3aS,6aS)-1-methylhexahydropyrrolo [3,4-b]pyrrole-5(1H)-yl)piperidine-1-yl)phenyl)acrylamide] | A (GI50 < 50 nM)
19 | C#Cc1cccc([C@H]2CCON2c2cc(Nc3cc(NC(=O)C=C)c(N4CCC(N5CCN(C6CC6)CC5)CC4)cc3OC)ncn2)c1 [Example 165, N-(2-(4-(4-cyclopropylpiperazine-1-yl)piperidine-1-yl)-5-((6-((R)-3-(3-ethynylphenyl)isoxazolidine-2-yl)pyrimidine-4-yl)amino)-4-methoxyphenyl) acrylamide] | A (GI50 < 50 nM)
20 | C=CC(=O)Nc1cc(Nc2cc(N3OCC[C@@H]3c3ccc(Cl)c(F)c3)ncn2)c(OC)cc1N1CCC(N2CCN(CC)CC2)CC1 [Example 262, N-(5-((6-((R)-3-(4-chloro-3-fluorophenyl)isoxazolidine-2-yl)pyrimidine-4-yl)amino)-2-(4-(4-ethylpiperazine-1-yl)piperidine-1-yl)-4-methoxyphenyl) acrylamide] | A (GI50 < 50 nM)
21 | C=CC(=O)Nc1cc(Nc2cc(N3OCC[C@@H]3c3cc(F)ccc3F)ncn2)c(OC)cc1N1CCN(C2CC2)CC1 [compound 299, N-(2-(4-cyclopropylpiperazine-1-yl)-5-((6-((R)-3-(2,5-difluorophenyl)isoxazolidine-2-yl)pyrimidine-4-yl)amino)-4-methoxyphenyl) acrylamide] | A (GI50 < 50 nM)
22 | C=CC(=O)Nc1cc(Nc2cc(N3OCC[C@@H]3c3cccc4ccccc34)ncn2)c(OC)cc1N1CCN(C2COC2)CC1 [compound 439, N-(4-methoxy-5-((6-((R)-3-(naphthalene-1-yl)isoxazolidine-2-yl)pyrimidine-4-yl)amino)-2-(4-(oxetane-3-yl)piperazine-1-yl)phenyl) acrylamide] | A (GI50 < 50 nM)
